Consider 16 molecules from patent US7074789B2, “Kinase inhibitors” (Amgen Inc., priority 1999, dated 2006).

Holding throughout (format): biochemical
Experiment [1] deals with T1, IGFR-1 (Homo sapiens, UniProt P08069).
T1 construct: Kinases are expressed as either kinase domains or full length constructs; made in house
Nature of the experiment: Kinase inhibition assay (33P transfer), IGFR-1. The conditions noted are these: Table 2, kinase inhibition class.

Experiment [2] concerns the target T2, AKT (Homo sapiens, UniProt Q9Y243).
T2 construct: Kinases are expressed as either kinase domains or full length constructs; made in house
Put plainly: Kinase inhibition assay (33P transfer), AKT. The conditions noted are these: Table 2, kinase inhibition class; read-out: AKT3-1. The procedure, abridged: (§1)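 Radiometric readout: 33P incorporated into surface-bound poly(Glu,Tyr) 4:1 or poly(Arg,Ser) 3:1 is counted by liquid scintillation after a 0.5% phosphoric acid wash. Enzymes were GST or polyHis fusions (kinase domain or full length) from E. coli or High Five insect cells.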

For experiment [3], the target named is T3, EGFR (Homo sapiens, UniProt P00533).
T3 construct: Kinases are expressed as either kinase domains or full length constructs; made in house
T3 sequence (P00533 25-1210, species assumed): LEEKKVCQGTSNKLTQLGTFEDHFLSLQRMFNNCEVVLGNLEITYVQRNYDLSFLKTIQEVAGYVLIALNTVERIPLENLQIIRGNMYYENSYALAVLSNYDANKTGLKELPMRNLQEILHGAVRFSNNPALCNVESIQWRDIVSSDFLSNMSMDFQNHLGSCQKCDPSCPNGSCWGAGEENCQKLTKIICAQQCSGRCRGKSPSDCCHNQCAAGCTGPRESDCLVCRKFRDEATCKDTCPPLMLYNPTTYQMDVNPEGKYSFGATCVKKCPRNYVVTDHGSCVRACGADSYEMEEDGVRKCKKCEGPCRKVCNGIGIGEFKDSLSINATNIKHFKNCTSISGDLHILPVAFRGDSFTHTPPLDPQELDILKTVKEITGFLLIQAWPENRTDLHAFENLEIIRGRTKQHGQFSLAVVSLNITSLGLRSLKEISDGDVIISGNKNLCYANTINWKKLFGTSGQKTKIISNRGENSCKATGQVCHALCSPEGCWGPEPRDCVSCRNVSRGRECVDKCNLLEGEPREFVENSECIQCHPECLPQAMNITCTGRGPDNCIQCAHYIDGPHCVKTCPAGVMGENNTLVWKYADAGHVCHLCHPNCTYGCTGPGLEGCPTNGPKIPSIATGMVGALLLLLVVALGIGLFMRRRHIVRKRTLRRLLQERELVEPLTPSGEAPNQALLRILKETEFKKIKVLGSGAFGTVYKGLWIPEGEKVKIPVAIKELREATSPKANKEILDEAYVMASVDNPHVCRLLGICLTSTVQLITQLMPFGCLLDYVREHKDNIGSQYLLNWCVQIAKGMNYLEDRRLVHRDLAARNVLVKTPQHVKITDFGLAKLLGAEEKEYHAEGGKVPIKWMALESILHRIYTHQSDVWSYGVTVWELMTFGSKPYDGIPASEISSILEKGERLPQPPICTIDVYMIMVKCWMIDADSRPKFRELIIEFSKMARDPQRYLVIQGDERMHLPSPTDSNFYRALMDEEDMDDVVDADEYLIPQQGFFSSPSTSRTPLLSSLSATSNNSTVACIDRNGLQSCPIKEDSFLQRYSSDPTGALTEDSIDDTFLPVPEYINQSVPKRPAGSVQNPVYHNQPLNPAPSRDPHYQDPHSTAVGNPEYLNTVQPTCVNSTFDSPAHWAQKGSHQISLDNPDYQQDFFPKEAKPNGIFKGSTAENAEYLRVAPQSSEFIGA
Put plainly: Kinase inhibition assay (33P transfer), EGFR. The conditions noted are these: Table 2, kinase inhibition class; read-out: EGFR-1. The procedure, abridged: (§2)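 Read-out: scintillation counts of 33P moved from ATP onto synthetic peptide polymer coated on the well surface, after washing with 0.5% phosphoric acid. Enzymes were tagged (GST or polyHistidine) and came from bacterial or insect-cell expression. IC50 marks 50% loss of incorporated label.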

Experiment [4] concerns the target T4, c-Met (Homo sapiens, UniProt P08581).
T4 construct: Kinases are expressed as either kinase domains or full length constructs; made in house
Nature of the experiment: Kinase inhibition assay (33P transfer), c-Met. The conditions noted are these: Table 2, kinase inhibition class; read-out: Met-1. The procedure, abridged:
as §2

Experiment [5] addresses T5, Itk (Homo sapiens, UniProt Q08881).
T5 construct: Kinases are expressed as either kinase domains or full length constructs; made in house
T5 sequence (Q08881 1-620): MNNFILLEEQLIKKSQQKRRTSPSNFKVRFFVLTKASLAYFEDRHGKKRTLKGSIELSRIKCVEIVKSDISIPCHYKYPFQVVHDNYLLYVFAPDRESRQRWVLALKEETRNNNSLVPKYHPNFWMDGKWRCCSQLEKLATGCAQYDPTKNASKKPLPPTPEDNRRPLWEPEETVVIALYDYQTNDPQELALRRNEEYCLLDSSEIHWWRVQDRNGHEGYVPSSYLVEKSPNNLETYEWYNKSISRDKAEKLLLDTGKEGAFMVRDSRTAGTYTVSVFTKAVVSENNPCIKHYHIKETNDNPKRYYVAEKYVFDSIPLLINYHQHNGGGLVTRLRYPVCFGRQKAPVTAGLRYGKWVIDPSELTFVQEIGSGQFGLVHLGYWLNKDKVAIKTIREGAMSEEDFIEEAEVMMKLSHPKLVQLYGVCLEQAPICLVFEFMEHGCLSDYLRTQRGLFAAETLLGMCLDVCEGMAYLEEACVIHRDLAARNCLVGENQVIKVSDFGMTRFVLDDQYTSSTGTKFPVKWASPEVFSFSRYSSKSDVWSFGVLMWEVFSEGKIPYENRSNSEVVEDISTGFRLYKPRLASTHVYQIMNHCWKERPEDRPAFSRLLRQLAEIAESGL
Nature of the experiment: Kinase inhibition assay (33P transfer), Itk. The conditions noted are these: read-out: Itk-1. In short, it runs like this: as §2

The target of experiment [6] is T6, Zap-70 (Homo sapiens, UniProt P43403).
T6 construct: Kinases are expressed as either kinase domains or full length constructs; made in house
T6 sequence (P43403 1-619): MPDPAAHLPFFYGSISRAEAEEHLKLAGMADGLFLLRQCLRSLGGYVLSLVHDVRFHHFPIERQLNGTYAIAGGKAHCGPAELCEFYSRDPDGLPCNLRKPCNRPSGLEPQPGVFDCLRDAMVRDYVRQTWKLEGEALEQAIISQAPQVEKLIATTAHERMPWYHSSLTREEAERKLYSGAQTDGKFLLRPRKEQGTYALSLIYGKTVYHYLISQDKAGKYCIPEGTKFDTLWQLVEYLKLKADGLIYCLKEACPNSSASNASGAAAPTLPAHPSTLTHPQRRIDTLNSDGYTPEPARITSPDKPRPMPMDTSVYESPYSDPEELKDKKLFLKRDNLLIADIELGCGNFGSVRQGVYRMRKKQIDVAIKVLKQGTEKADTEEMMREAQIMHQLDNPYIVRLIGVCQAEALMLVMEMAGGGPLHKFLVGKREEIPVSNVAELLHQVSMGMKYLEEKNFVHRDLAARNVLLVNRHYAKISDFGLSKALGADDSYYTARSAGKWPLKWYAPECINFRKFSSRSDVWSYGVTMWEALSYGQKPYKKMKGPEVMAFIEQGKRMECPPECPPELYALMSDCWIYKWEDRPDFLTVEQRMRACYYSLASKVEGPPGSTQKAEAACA
Nature of the experiment: Kinase inhibition assay (33P transfer), Zap-70. The conditions noted are these: read-out: Zap-1. The procedure, abridged:
as §1

For experiment [7], the target named is T7, Lck (Homo sapiens, UniProt P06239).
T7 construct: Kinases are expressed as either kinase domains or full length constructs; made in house
Put plainly: Kinase inhibition assay (33P transfer), Lck. The conditions noted are these: read-out: Lck-1. In short, it runs like this: as §1

In experiment [8] the target is T8, Kdr (Homo sapiens, UniProt P35968).
T8 construct: Kinases are expressed as either kinase domains or full length constructs; made in house
T8 sequence (P35968 20-1356, species assumed): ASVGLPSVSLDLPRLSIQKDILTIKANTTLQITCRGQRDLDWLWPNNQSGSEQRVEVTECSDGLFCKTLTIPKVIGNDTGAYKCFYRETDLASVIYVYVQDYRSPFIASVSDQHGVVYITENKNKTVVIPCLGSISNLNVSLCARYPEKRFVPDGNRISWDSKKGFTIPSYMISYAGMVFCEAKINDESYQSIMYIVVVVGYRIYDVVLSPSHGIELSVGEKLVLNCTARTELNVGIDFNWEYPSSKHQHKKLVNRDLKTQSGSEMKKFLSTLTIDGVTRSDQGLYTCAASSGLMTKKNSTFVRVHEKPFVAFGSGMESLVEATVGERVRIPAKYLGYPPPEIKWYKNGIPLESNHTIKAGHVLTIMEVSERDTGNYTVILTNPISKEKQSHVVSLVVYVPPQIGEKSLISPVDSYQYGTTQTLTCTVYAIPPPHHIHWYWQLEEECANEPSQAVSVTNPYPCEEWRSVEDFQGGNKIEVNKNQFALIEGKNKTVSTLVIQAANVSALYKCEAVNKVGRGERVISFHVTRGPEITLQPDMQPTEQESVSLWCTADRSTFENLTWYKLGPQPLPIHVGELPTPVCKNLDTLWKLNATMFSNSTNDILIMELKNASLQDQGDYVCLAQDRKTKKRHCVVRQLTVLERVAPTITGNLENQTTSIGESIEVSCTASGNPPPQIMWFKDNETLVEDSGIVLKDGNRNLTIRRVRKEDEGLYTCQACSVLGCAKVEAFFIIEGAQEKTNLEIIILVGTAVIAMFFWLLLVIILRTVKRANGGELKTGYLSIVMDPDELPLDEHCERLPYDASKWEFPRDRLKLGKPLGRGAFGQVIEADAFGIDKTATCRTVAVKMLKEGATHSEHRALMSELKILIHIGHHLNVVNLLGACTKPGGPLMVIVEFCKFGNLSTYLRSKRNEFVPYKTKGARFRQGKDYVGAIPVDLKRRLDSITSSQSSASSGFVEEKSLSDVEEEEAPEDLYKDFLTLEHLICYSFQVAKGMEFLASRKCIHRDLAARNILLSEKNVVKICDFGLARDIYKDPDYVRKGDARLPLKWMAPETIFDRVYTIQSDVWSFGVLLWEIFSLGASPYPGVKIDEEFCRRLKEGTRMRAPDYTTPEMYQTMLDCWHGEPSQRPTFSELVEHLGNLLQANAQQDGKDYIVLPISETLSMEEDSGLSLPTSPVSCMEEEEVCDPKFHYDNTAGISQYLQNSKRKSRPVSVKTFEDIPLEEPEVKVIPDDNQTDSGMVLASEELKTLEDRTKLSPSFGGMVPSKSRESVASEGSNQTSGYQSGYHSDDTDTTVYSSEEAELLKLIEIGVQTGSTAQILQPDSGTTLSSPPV
Nature of the experiment: Kinase inhibition assay (33P transfer), Kdr. The conditions noted are these: read-out: KDR-1. The procedure, abridged: as §1

For experiment [9], the target named is T9, ErbB2 (Homo sapiens, UniProt P04626).
T9 construct: Kinases are expressed as either kinase domains or full length constructs; made in house
T9 sequence (P04626 23-1255, species assumed): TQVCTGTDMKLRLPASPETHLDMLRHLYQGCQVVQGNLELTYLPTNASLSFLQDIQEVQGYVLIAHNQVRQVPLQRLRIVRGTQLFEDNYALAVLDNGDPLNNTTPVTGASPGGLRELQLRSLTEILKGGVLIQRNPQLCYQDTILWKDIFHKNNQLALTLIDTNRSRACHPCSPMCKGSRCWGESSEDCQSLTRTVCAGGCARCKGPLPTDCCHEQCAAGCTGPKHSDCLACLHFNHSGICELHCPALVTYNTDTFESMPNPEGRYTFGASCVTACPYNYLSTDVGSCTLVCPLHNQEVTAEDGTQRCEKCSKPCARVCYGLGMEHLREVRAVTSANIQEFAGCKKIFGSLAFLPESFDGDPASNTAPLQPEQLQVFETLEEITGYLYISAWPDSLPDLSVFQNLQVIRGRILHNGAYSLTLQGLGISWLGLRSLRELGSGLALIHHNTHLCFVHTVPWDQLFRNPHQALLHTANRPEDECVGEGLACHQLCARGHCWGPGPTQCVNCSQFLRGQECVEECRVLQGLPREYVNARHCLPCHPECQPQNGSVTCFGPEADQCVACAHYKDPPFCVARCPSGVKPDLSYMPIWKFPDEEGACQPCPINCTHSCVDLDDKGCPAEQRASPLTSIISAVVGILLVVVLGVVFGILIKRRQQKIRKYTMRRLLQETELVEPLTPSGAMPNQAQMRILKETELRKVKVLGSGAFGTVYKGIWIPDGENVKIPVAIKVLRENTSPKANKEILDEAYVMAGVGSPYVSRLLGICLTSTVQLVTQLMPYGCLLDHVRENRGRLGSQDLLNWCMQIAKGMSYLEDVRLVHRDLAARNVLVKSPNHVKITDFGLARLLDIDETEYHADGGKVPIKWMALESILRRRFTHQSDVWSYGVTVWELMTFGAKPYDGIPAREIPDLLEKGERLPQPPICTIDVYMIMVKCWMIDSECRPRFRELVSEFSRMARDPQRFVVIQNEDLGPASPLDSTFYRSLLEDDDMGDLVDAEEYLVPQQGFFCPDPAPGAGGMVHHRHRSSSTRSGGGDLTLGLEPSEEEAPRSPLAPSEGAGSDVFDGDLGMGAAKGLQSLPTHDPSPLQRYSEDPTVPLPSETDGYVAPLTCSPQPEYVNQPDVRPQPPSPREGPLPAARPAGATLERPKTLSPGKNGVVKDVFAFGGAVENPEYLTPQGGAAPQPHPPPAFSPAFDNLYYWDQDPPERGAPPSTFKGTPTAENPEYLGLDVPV
Nature of the experiment: Kinase inhibition assay (33P transfer), ErbB2. The conditions noted are these: read-out: ErbB2-2. In short, it runs like this:
as §2

Experiment [10] deals with T1, IGFR-1. Nature of the experiment: Kinase inhibition assay, IGFR-1 (Table 2). The conditions noted are these: Table 2, kinase inhibition class.
The target of experiment [11] is T10, PDGFRB (Homo sapiens, UniProt P09619).
T10 construct: Kinases are expressed as either kinase domains or full length constructs; made in house
Put plainly: Kinase inhibition assay (33P transfer), PDGFRB. The conditions noted are these: read-out: PDGFRB-1.

Like-named read-outs stand apart in the source and are kept apart here.

T4 sequence (P08581 25-1390): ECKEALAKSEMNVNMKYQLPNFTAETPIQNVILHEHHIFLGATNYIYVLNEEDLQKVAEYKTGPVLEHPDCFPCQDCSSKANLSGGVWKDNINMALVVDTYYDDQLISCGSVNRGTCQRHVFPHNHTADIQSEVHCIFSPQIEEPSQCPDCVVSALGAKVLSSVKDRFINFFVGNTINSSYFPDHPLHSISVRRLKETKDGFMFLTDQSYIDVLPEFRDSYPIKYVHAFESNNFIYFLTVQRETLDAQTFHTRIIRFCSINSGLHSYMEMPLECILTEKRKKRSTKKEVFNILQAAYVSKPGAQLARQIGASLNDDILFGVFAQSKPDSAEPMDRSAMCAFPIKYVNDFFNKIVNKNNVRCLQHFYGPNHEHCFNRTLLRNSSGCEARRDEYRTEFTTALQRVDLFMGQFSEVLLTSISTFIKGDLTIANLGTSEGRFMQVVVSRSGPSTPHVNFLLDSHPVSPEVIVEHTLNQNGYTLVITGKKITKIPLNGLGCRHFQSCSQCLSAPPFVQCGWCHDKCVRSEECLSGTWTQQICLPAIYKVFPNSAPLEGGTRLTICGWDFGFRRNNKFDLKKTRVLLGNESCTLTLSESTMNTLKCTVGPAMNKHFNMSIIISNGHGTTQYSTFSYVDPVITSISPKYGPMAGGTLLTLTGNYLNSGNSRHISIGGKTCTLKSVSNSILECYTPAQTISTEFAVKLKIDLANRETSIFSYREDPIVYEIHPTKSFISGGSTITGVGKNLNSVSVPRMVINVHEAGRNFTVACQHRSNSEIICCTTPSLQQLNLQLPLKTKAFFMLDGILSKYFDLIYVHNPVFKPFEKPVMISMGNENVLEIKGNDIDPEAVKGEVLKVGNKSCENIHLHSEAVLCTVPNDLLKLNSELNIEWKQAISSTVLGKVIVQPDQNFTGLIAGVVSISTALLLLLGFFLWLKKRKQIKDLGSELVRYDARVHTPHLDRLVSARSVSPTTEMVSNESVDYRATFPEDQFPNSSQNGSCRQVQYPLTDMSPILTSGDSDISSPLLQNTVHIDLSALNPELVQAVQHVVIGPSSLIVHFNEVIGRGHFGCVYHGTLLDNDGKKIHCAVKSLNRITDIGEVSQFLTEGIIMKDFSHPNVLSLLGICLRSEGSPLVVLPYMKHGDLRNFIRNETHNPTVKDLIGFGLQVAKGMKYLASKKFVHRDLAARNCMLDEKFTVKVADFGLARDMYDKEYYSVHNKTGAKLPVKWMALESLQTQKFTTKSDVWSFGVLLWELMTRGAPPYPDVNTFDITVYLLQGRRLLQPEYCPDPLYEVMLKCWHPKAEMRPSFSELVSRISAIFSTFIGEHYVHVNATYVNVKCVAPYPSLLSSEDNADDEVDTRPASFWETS

`COc1cc(Nc2ncnc(N3CCCC3)n2)cc(OC)c1OC` [Compound 181]: the IC50 in experiment [1], in experiment [2], in experiment [3], in experiment [4], in experiment [5] (Table 3) and in experiment [6] (Table 3) was over 13.6 µM throughout. The IC50 in experiment [7] (Table 3) and in [8] (Table 3) was over 13.6 µM each time.
As for `NC(=O)c1cccc(Nc2ncnc(-c3cccs3)n2)c1` [Compound 358], the IC50 in experiment [1], in experiment [2], in experiment [3], in experiment [4], in experiment [5] (Table 3) and in [6] (Table 3) was over 15.1 µM in each case. Further, the IC50 in experiment [7] (Table 3) and in [8] (Table 3) was over 15.1 µM in each case.
Regarding `CCOC(=O)Cc1ccc(Nc2ncnc(-c3ccccc3)n2)cc1` [Compound 164], the IC50 in experiment [1], in experiment [2], in experiment [3], in experiment [4], in experiment [5] (Table 3) and in experiment [6] (Table 3) was over 13.5 µM each time. Further, the IC50 in experiment [7] (Table 3) and in experiment [8] (Table 3) was over 13.5 µM in each case.
In the case of `COc1ccc2c(c1)c(CCN(C)C)cn2-c1ncnc(Nc2cc(OC)c(OC)c(OC)c2)n1` [Compound 333], the IC50 in [1], in experiment [2], in experiment [3], in experiment [4], in experiment [5] (Table 3) and in experiment [6] (Table 3) was over 9.4 µM each time. Besides, the IC50 in [7] (Table 3) and in experiment [8] (Table 3) was over 9.4 µM throughout.
Regarding `COc1cccc(NC(=O)Nc2ncnc(Nc3cc(OC)c(OC)c(OC)c3)n2)c1` [Compound 21], the IC50 in experiment [1] was 0.938 to 5.63 µM; in experiment [2], over 10.6 µM; in experiment [3] it was over 10.6 µM; in experiment [4] it was 8.21 to 10.6 µM; in experiment [5] (Table 3), over 10.6 µM; in experiment [6] (Table 3), 8.21 to 10.6 µM. Besides, the IC50 in [7] (Table 3) and in experiment [8] (Table 3) was 0.938 to 5.63 µM throughout.
For the molecule `COc1cc(Nc2ncnc(N3CCN(c4ncccn4)CC3)n2)cc(OC)c1OC` [Compound 214], the IC50 is over 10.6 µM in experiment [1]; over 10.6 µM in experiment [2]; over 10.6 µM in experiment [3]; 5.65 to 8.25 µM in experiment [4]; over 10.6 µM in experiment [5] (Table 3); over 10.6 µM in experiment [6] (Table 3). Moreover, the IC50 in experiment [7] (Table 3) is over 10.6 µM; in [8] (Table 3), 0.942 to 5.65 µM.
Consider `COc1cc(Nc2ncnc(-n3cc(OC(C)=O)c4ccccc43)n2)cc(OC)c1OC` [Compound 205], for which the IC50 in [1], in [2], in experiment [3], in experiment [4], in experiment [5] (Table 3) and in experiment [6] (Table 3) was over 10.3 µM in each case. Also, the IC50 is over 10.3 µM in experiment [7] (Table 3) and 5.51 to 8.04 µM in experiment [8] (Table 3).
As for `COc1cc(Nc2ncnc(-c3ccnc(N4CCCCC4)c3)n2)cc(OC)c1OC` [Compound 345], the IC50 in experiment [1] was 0.947 to 5.68 µM; in experiment [2], over 10.7 µM; in experiment [3] it was over 10.7 µM; in [4] it was 0.947 to 5.68 µM; in experiment [5] (Table 3), over 10.7 µM; in experiment [6] (Table 3) it was over 10.7 µM. The results for the IC50 in experiment [7] (Table 3) and in experiment [8] (Table 3) were 0.947 to 5.68 µM and under 0.947 µM, respectively.
As for `Fc1ccccc1Nc1ncnc(-c2ccccc2)n1` [Compound 20], the IC50 in experiment [1], in experiment [2], in [3], in experiment [4], in experiment [5] (Table 3) and in [6] (Table 3) was over 16.9 µM in each case. Also, the IC50 in experiment [7] (Table 3) and in [8] (Table 3) was over 16.9 µM each time.
For `NC(=O)c1ccc(Nc2ncnc(-c3ccccc3)n2)cc1` [Compound 1028], the IC50 in experiment [1], in [2], in experiment [3], in [4], in experiment [5] (Table 3) and in [6] (Table 3) was over 15.4 µM each time. Also, the IC50 in experiment [7] (Table 3) and in [8] (Table 3) was over 15.4 µM each time.
Turning to `FC(F)C(F)(F)Oc1cccc(Nc2ncnc(-c3cccs3)n2)c1` [Compound 350], the IC50 in experiment [1], in [2], in experiment [3], in [4], in experiment [5] (Table 3) and in experiment [6] (Table 3) was over 12.2 µM throughout. The IC50 in experiment [7] (Table 3) and in [8] (Table 3) was over 12.2 µM throughout.
For the molecule `c1ccc(COc2cccc(Nc3ncnc(-c4cccs4)n3)c2)cc1` [Compound 361], the IC50 in experiment [1], in experiment [2], in experiment [3], in experiment [4], in [5] (Table 3) and in experiment [6] (Table 3) was over 12.5 µM in each case. Also, the IC50 in experiment [7] (Table 3) and in experiment [8] (Table 3) was over 12.5 µM throughout.
Regarding `CN(c1cccc(Cl)c1)c1ncnc(Nc2cccc(CC(=O)O)c2)n1` [Compound 706], the IC50 in [2] was over 12.2 µM; in [3], under 1.08 µM; in experiment [4], 1.08 to 6.49 µM; in experiment [9], under 1.08 µM; in [10], over 12.2 µM; in experiment [5] it was over 12.2 µM. For the same molecule, the IC50 in [6] is over 12.2 µM; in [7] it was over 12.2 µM; in [11] it was 6.49 to 9.46 µM; in experiment [8] it was under 1.08 µM.
`CCCN(CC1CC1)c1ncnc(Nc2cc(OC)c(OC)c(OC)c2)n1` [Compound 626]: the IC50 in [2] was over 12 µM; in experiment [3] it was 9.37 to 12 µM; in experiment [4] it was 1.07 to 6.43 µM; in [9] it was over 12 µM; in [10] it was over 12 µM; in [5], 9.37 to 12 µM. Moreover, the IC50 was over 12 µM in [6], 1.07 to 6.43 µM in experiment [7], 1.07 to 6.43 µM in experiment [11] and 1.07 to 6.43 µM in experiment [8].
With `COc1cc(Nc2ncnc(Nc3cc(C(F)(F)F)ccc3F)n2)cc(OC)c1OC` [Compound 618], the IC50 in experiment [2] is 7.97 to 10.2 µM; in experiment [3], under 0.91 µM; in experiment [4], 5.46 to 7.97 µM; in experiment [9] it was 5.46 to 7.97 µM; in experiment [10], under 0.91 µM; in [5], 7.97 to 10.2 µM. In addition, the IC50 in experiment [6] was over 10.2 µM; in [7], 0.91 to 5.46 µM; in experiment [11], 0.91 to 5.46 µM; in experiment [8] it was 0.91 to 5.46 µM.
As to `COc1ccc(Cl)cc1Nc1ncnc(Nc2cc(OC)c(OC)c(OC)c2)n1` [Compound 627], the IC50 in experiment [2] was over 10.8 µM; in experiment [3], 0.957 to 5.74 µM; in [4] it was 8.38 to 10.8 µM; in [9], 0.957 to 5.74 µM; in experiment [10], under 0.957 µM; in experiment [5], 0.957 to 5.74 µM. In addition, the IC50 in experiment [6] is over 10.8 µM; in [7] it was under 0.957 µM; in experiment [11] it was under 0.957 µM; in experiment [8], 0.957 to 5.74 µM.
